Assay [1] has as its target T1, human SGLT2 (Homo sapiens, UniProt P31639).
T1 construct: expressed in transfected cells; host or cells: CHO-K1
T1 sequence (P31639 1-672): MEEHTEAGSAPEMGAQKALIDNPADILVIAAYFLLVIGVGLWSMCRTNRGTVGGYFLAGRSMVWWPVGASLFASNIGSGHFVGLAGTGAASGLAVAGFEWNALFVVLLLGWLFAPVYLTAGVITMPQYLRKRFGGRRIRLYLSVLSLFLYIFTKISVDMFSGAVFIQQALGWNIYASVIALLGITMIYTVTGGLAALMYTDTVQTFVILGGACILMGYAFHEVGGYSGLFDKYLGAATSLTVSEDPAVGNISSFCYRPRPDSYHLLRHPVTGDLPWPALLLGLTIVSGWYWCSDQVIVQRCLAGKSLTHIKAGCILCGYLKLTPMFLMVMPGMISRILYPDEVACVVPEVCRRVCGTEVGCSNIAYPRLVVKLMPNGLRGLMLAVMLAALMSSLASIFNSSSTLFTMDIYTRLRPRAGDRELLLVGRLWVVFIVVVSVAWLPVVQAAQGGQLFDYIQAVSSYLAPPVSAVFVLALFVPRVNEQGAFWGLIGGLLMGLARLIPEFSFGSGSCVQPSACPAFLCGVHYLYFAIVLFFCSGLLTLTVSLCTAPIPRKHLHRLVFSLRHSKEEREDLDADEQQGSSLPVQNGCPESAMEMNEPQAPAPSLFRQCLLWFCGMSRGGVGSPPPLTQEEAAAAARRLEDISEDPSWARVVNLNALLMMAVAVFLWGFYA
Kind of assay: SGLT2 assay: Na-dependent 14C-AMG uptake in CHO-K1 cells stably expressing human SGLT2. The assay is classed as cell-based. As to conditions: for pIC50: 500 μM AMG, 2 hours at 37° C. The essentials: (§1)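 CHO-K1 cells stably expressing human SGLT1 or SGLT2, pretreated 24 h with 10 mM Na-butyrate, were exposed 10 min to compound (0.001-10 μM) in Na-containing HEPES/Tris buffer pH 7.4. Uptake of ^14C-AMG (500 μM final) ran 2 h at 37° C, then Na-dependent uptake was counted by scintillation.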

The target of assay [2] is T2, human SGLT1 (Homo sapiens, UniProt P13866).
T2 construct: expressed in transfected cells; host or cells: CHO-K1
T2 sequence (P13866 1-664): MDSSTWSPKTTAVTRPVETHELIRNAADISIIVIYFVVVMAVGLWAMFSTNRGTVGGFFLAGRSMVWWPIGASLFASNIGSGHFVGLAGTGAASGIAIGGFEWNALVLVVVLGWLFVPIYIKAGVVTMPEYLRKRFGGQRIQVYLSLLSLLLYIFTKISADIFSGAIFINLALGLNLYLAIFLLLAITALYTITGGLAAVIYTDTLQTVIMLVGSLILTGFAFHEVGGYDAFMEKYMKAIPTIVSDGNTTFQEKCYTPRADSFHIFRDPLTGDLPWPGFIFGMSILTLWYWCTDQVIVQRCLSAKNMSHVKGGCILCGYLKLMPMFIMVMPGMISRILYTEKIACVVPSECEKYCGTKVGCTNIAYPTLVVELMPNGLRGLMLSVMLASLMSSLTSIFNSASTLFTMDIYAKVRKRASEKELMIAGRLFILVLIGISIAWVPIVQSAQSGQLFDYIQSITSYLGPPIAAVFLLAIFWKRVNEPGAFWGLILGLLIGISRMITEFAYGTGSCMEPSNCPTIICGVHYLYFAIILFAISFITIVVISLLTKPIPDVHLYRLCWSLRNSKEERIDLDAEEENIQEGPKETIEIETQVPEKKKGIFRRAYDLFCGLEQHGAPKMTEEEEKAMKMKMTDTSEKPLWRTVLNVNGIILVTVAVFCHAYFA
The assay is described as follows: SGLT1 assay: Na-dependent 14C-AMG uptake in CHO-K1 cells stably expressing human SGLT1. The assay is classed as cell-based. As to conditions: for pIC50: 500 μM AMG, 2 hours at 37° C. Summed up:
as §1

pIC50: −log10 of the molar value.

As to `[2H]C1([2H])Cc2ccc(Cc3cc([C@@H]4O[C@H](CO)[C@@H](O)[C@H](O)[C@H]4O)ccc3CC)cc21` [Compound 66, (2S,3R,4R,5S,6R)-2-(3-((2,2-dideuterium-1,2-dihydrocyclobutabenzen-4-yl)methyl)-4-ethylphenyl)-6-(hydroxymethyl)-tetrahydro-2H-pyran-3,4,5-triol], the pIC50 was 8.52 in assay [1] and 7.49 in assay [2].
For `[2H]C([2H])(c1ccc2c(c1)CC2)c1cc([C@@H]2O[C@H](CO)[C@@H](O)[C@H](O)[C@H]2O)ccc1C` [Compound 51] the same measures were 9.00 and 7.46.
For `[2H]C1([2H])Cc2ccc(Cc3cc([C@@H]4O[C@H](CO)[C@@H](O)[C@H](O)[C@H]4O)c(OC)cc3OC)cc21` (single isomer, unassigned) [Compound 68] the same measures were 8.70 and 7.39.
For `Cc1ccc([C@@H]2O[C@H](CO)[C@@H](O)[C@H](O)[C@H]2O)cc1Cc1ccc2c(c1)CC2` [Compound 1, (2S,3R,4R,5S,6R)-2-(3-((1,2-dihydrocyclobutabenzen-4-yl)methyl)-4-methylphenyl)-6-(hydroxymethyl)-tetrahydro-2H-pyran-3,4,5-triol], the pIC50 in assay [1] is 9.00; in assay [2] it was 7.48.
Turning to `CN(C)c1ccc([C@@H]2O[C@H](CO)[C@@H](O)[C@H](O)[C@H]2O)cc1Cc1ccc2c(c1)CC2` [Compound 21, (2S,3R,4R,5S,6R)-2-(3-(bicyclo[4.2.0]octa-1(6),2,4-trien-3-ylmethyl)-4-(dimethylamino)phenyl)-6-(hydroxymethyl)oxane-3,4,8-triol], the inhibition at 0.03 µM in assay [1] was found to be 35%. In assay [2], this molecule gave an inhibition at 0.3 µM of 67%.
For the molecule `COc1cc(OC)c([C@@H]2O[C@H](CO)[C@@H](O)[C@H](O)[C@H]2O)cc1Cc1ccc2c(c1)CC2` [Compound 11, (2S,3R,4R,5S,6R)-2-(5-((1,2-dihydrocyclobutabenzen-4-yl)methyl)-2,4-dimethoxyphenyl)-6-(hydroxymethyl)-tetrahydro-2H-pyran-3,4,5-triol], the pIC50 is 9.00 in assay [1] and 7.24 in assay [2].
On to `CCc1cc(O)c([C@@H]2O[C@H](CO)[C@@H](O)[C@H](O)[C@H]2O)cc1Cc1ccc2c(c1)CC2` [Compound 12], for which the pIC50 in assay [1] was 8.70; in assay [2], 8.52.
For `[2H]C1([2H])Cc2cc(Cc3cc([C@@H]4O[C@H](CO)[C@@H](O)[C@H](O)[C@H]4O)ccc3OC)ccc21` (single isomer, unassigned) [Compound 82] the same measures were 8.10 and 7.52.
As to `COc1cc(O)c([C@@H]2O[C@H](CO)[C@@H](F)[C@H](O)[C@H]2O)cc1Cc1ccc2c(c1)CC2` [Compound 135], the pIC50 in assay [1] and in assay [2] was 8.52 throughout.
For `CCOc1cc(OC)c(Cc2ccc3c(c2)CC3)cc1[C@@H]1O[C@H](CO)[C@@H](F)[C@H](O)[C@H]1O` [Compound 137], the pIC50 is 9.00 in assay [1] and 7.70 in assay [2].
For `COc1cc(OC)c([C@@H]2O[C@H](CO)C(F)(F)[C@H](O)[C@H]2O)cc1Cc1ccc2c(c1)CC2` [Compound 108] the same measures were 9.00 and 7.57.
In the case of `[2H]C1([2H])Cc2ccc(Cc3cc([C@@H]4O[C@H](CO)[C@@H](O)[C@H](O)[C@H]4O)ccc3C)cc21` [Compound 65, (2S,3R,4R,5S,6R)-2-[3-[(8,8-dideuterium)bicyclo[4.2.0]octa-1(6),2,4-trien-3-ylmethyl]-4-methylphenyl]-6-(hydroxymethyl)oxane-3,4,5-triol], the pIC50 in assay [1] was 8.52; in assay [2], 7.62.
For `Cc1cc(OCF)c([C@@H]2O[C@H](CO)[C@@H](O)[C@H](O)[C@H]2O)cc1Cc1ccc2c(c1)CC2` [Compound 39, (2S,3R,4R,5S,6R)-2-(5-[bicyclo[4.2.0]octa-1(6),2,4-trien-3-ylmethyl]-2-(fluoromethoxy)-4-methylphenyl)-6-(hydroxymethyl)oxane-3,4,8-triol], in that order: 7.89 and 7.57.
Molecule `COc1cc(C2CC2)c(Cc2ccc3c(c2)CC3)cc1[C@@H]1O[C@H](CO)[C@@H](O)[C@H](O)[C@H]1O` [Compound 15, (2S,3R,4R,5S,6R)-2-(5-(bicyclo[4.2.0]octa-1(6),2,4-trien-3-ylmethyl)-4-cyclopropyl-2-methoxyphenyl)-6-(hydroxymethyl)oxane-3,4,5-triol] showed an inhibition at 0.03 µM in assay [1] of 31%. Testing at 0.3 µM in assay [2] gave an inhibition of 67%.
As for `OC[C@H]1O[C@@H](c2ccc(Cl)c(Cc3ccc4c(c3)CC4)c2)[C@H](O)[C@@H](O)[C@@H]1F` [Compound 134], the pIC50 in assay [1] is 8.70; in assay [2] it was 7.44.
Turning to `COc1cc(OC(F)F)c([C@@H]2O[C@H](CO)[C@@H](O)[C@H](O)[C@H]2O)cc1Cc1ccc2c(c1)CC2` [Compound 38, (2S,3R,4R,5S,6R)-2-(2-(difluoromethoxy)-5-((1,2-dihydrocyclobutabenzen-4-yl)methyl)-4-methoxyphenyl)-6-(hydroxymethyl)-tetrahydro-2H-pyran-3,4,5-triol], the inhibition at 0.03 µM in assay [1] amounted to 78%. This molecule returned an inhibition at 0.3 µM in assay [2] of 20%.
For `COc1cc(C)c(Cc2ccc3c(c2)CC3)cc1[C@@H]1O[C@H](CO)C(F)(F)[C@H](O)[C@H]1O` [Compound 93, (2S,3R,4R,6R)-2-(5-(bicyclo[4.2.0]octa-1(6),2,4-trien-3-ylmethyl)-2-methoxy-4-methylphenyl)-5,5-difluoro-6-(hydroxymethyl)tetrahydro-2H-pyran-3,4-diol], the values for the pIC50 in assay [1] and in assay [2] were 8.52 and 7.02, respectively.
For `[2H]C([2H])(c1ccc2c(c1)CC2)c1cc([C@@H]2O[C@H](CO)[C@@H](O)[C@H](O)[C@H]2O)ccc1OC` (single isomer, unassigned) [Compound 57] the same measures were 8.22 and 7.36.
On to `[2H]C1([2H])Cc2ccc(Cc3cc([C@@H]4O[C@H](CO)[C@@H](O)[C@H](O)[C@H]4O)c(F)cc3CC)cc21` [Compound 73, (2S,3R,4R,5S,6R)-2-(5-((2,2-dideuterium-1,2-dihydrocyclobutabenzen-4-yl)methyl)-4-ethyl-2-fluorophenyl)-6-(hydroxymethyl)-tetrahydro-2H-pyran-3,4,5-triol], for which the pIC50 is 8.52 in assay [1] and 7.80 in assay [2].
For `[2H]C1([2H])Cc2ccc(Cc3cc([C@@H]4O[C@H](CO)[C@@H](O)[C@H](O)[C@H]4O)c(F)cc3C3CC3)cc21` [Compound 74, (2S,3R,4R,5S,6R)-2-(4-cyclopropyl-5-((2,2-dideuterium-1,2-dihydrocyclobutabenzen-4-yl)methyl)-2-fluorophenyl)-6-(hydroxymethyl)-tetrahydro-2H-pyran-3,4,5-triol] the same measures were 8.00 and 7.92.
Consider `OC[C@H]1O[C@@H](c2cc(Cc3ccc4c(c3)CC4)c(Cl)cc2OC2CC2)[C@H](O)[C@@H](O)[C@@H]1O` [Compound 117], for which the pIC50 is 8.70 in assay [1] and 7.30 in assay [2].
Molecule `Cc1cc(OC(F)(F)F)c([C@@H]2O[C@H](CO)[C@@H](O)[C@H](O)[C@H]2O)cc1Cc1ccc2c(c1)CC2` [Compound 33, (2S,3R,4R,5S,6R)-2-(5-((1,2-dihydrocyclobutabenzen-4-yl)methyl)-4-methyl-2-(trifluoromethoxy)phenyl)-6-(hydroxymethyl)-tetrahydro-2H-pyran-3,4,5-triol] yielded an inhibition at 0.03 µM in assay [1] of 57%. Also, the inhibition at 0.3 µM in assay [2] was determined as 23%.
Take `[2H]C([2H])(c1ccc2c(c1)CC2)c1cc([C@@H]2O[C@H](CO)[C@@H](O)[C@H](O)[C@H]2O)c(OC)cc1Cl` [Compound 56, (2S,3R,4R,5S,6R)-2-(5-[bicyclo[4.2.0]octa-(6),2,4-trien-3-yl(dideuterium)methyl]-4-chloro-2-methoxyphenyl)-6-(hydroxymethyl)oxane-3,4,5-triol]: the pIC50 is 8.70 in assay [1] and 7.03 in assay [2].

Broadly, the pIC50 is the IC50 on a negative log10 scale, so that one unit is a factor of ten. Read a low pIC50 as a high IC50. One may read the inhibition as the drop in the measured response relative to a control, in per cent.

Source of the values: patent US10815210B2, “Benzocyclobutane derivatives useful as dual SGLT1 / SGLT2 modulators” (Janssen Pharmaceutica NV, priority 2016, dated 2020).
